# According to patent US20260193264A1, “BENZOYPARAZINE PYRAZINES AND THEIR USES” (FOGHORN THERAPEUTICS INC., priority 2022, published 2026):
# What was measured:
# [1] = biological target: T1, HiBit-BRG1 fusion protein in stable HeLa cell line expressing HiBit-BRG1 and LgBit (Homo sapiens, UniProt P51532); assay: HiBiT-BRG1 cell-based degradation assay (Nano-Glo HiBiT, 24 h); conditions: HeLa HiBit-BRG1/LgBit cells; for DC50: read-out: BRMG1 HiBit Degradation IC50; for Dmax: top dose 30 μM, read-out: BRG1 HiBit Degradation Maximum (%)
# T1 construct: expressed in transfected cells
# Method in brief: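 Stable HeLa line co-expressing HiBiT-BRG1 and LgBiT, compound-treated 24 h; luminescence read after Nano-Glo HiBiT lytic reagent. % degradation normalised between DMSO (high control) and 2 μM reference BRM/BRG1 degrader (low control).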
# [2] = biological target: T2, HiBiT-BRM fusion protein in stable HeLa cell line (Homo sapiens, UniProt P51531); assay: HiBiT-BRM cell-based degradation assay (Nano-Glo HiBiT Lytic Detection, 24 h); design: DC50: scale not given here; conditions: HeLa HiBiT-BRM cells; for DC50: read-out: BRM HiBit Degradation IC50; for BRM HiBit Degradation Maximum (%): top dose 30 μM
# T2 construct: expressed in transfected cells
# Method in brief: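 Luminescence from HiBiT/LgBiT complementation after lysis reports remaining HiBiT-BRM in stable HeLa cells exposed to compound for 24 h. Dosing used 3-fold serial dilutions, 10 points, 30 μM top final concentration. DMSO and a 2 μM BRM/BRG1 degrader standard defined 0% and 100% degradation.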
# T2 sequence (P51531 whole entry, the tested form may be a part): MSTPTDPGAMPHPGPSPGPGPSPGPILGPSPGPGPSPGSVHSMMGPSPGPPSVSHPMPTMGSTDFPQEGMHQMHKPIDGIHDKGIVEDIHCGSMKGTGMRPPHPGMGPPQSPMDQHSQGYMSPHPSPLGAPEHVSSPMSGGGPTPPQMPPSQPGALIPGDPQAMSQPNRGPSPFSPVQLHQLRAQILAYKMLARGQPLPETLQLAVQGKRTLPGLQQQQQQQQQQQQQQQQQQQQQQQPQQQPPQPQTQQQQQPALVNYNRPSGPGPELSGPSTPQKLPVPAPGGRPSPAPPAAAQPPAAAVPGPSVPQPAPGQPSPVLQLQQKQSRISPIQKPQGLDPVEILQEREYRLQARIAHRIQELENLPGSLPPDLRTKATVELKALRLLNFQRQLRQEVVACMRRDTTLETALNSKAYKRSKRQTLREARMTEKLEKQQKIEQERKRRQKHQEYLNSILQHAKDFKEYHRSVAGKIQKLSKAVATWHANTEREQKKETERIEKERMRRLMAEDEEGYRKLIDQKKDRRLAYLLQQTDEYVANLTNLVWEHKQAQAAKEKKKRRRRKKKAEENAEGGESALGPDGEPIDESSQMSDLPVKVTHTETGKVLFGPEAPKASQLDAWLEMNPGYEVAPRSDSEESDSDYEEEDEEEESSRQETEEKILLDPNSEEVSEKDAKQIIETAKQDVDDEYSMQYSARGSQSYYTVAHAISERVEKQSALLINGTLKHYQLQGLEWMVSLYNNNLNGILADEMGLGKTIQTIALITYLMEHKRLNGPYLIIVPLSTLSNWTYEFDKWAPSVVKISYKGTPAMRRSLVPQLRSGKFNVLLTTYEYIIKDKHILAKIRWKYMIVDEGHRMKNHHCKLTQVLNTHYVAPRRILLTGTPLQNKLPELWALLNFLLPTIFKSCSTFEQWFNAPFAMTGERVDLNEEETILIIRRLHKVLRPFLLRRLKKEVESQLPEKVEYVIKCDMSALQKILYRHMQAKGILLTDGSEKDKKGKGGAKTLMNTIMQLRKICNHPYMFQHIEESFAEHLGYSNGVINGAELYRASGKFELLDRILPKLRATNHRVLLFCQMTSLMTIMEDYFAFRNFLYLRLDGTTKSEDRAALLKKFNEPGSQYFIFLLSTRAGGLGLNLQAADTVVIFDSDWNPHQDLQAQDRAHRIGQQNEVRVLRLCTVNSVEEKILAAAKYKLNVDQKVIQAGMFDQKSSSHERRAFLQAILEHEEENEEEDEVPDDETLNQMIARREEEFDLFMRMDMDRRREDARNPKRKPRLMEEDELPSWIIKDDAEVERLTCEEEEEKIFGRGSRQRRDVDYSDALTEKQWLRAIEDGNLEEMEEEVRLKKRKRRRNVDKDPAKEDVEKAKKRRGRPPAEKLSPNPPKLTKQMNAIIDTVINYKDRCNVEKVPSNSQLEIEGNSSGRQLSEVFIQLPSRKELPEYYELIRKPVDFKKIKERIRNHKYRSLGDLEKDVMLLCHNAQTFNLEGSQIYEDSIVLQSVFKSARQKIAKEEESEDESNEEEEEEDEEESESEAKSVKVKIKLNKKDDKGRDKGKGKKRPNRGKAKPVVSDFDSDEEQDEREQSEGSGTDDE
# T1 sequence (P51532 whole entry, the tested form may be a part): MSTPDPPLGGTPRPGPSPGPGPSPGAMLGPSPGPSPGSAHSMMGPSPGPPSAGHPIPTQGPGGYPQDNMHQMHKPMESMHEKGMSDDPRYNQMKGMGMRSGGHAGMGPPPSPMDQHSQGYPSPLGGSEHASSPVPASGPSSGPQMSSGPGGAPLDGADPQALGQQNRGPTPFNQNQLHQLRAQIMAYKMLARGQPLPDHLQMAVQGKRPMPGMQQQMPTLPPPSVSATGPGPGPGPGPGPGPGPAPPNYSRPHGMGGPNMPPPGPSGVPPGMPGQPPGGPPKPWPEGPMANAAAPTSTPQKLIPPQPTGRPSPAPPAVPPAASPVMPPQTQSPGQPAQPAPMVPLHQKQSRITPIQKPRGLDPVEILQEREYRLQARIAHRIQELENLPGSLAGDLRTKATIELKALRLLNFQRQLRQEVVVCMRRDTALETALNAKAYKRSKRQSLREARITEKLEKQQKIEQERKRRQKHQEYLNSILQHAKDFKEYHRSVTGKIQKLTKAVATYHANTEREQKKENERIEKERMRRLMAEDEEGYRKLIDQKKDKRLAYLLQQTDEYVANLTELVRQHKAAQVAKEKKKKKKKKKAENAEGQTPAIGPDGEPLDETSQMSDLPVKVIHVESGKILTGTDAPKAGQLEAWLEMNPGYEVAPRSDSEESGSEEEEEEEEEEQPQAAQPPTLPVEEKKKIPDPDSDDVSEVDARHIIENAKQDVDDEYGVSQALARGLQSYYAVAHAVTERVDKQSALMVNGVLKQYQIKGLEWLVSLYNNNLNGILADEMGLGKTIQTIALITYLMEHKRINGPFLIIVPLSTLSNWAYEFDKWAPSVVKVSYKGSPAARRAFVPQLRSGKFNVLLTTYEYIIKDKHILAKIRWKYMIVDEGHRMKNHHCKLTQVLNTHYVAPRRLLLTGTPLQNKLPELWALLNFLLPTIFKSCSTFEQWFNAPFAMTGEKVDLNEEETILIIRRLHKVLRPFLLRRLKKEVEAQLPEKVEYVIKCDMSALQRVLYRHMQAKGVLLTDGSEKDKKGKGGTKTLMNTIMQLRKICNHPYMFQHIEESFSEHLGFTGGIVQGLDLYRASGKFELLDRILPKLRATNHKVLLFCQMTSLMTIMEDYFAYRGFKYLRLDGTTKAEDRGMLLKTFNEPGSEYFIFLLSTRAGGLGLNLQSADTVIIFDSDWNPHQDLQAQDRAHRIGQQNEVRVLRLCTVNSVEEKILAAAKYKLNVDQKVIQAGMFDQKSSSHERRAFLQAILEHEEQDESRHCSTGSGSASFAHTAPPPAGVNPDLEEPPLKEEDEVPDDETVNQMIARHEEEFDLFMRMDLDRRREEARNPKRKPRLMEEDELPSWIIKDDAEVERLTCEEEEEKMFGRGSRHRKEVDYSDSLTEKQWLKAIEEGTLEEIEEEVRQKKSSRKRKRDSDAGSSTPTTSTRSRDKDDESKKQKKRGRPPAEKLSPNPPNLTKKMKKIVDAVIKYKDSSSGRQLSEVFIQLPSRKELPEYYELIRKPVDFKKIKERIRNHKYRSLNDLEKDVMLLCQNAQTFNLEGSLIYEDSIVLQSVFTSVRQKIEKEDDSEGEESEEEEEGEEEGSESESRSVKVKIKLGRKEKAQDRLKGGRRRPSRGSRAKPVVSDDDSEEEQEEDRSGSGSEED
Structure (SMILES),DC50 [1],Dmax [1],DC50 [2],BRM HiBit Degradation Maximum (%) [2]
"Cc1ncsc1-c1ccc([C@H](C)NC(=O)[C@@H]2C[C@@H](O)CN2C(=O)C(C(C)C)n2cc(N3CCC4C(C3)CN4c3ccc4cc(-c5ccccc5O)nnc4c3)nn2)cc1 (stereo partly drawn) [Compound 263, (2S,4R)-4-hydroxy-1-(2-(4-(7-(3-(2-hydroxyphenyl)cinnolin-7-yl)-3,7-diazabicyclo[4.2.0]octan-3-yl)-1H-1,2,3-triazol-1-yl)-3-methylbutanoyl)-N-((S)-1-(4-(4-methylthiazol-5-yl)phenyl)ethyl)pyrrolidine-2-carboxamide]",> 10 nM,> 75%,> 10 nM,A (“A” indicates maximum degradation ≥75%)
"Cc1ncsc1-c1ccc(CNC(=O)[C@@H]2C[C@@H](O)CN2C(=O)C(c2cc(N3CC4(CN(c5ccc6cc(-c7ccccc7O)nnc6c5)C4)C3)no2)C(C)C)cc1 (stereo partly drawn) [Compound 117, (2S,4R)-4-hydroxy-1-(2-(3-(6-(3-(2-hydroxyphenyl)cinnolin-7-yl)-2,6-diazaspiro[3.3]heptan-2-yl)isoxazol-5-yl)-3-methylbutanoyl)-N-(4-(4-methylthiazol-5-yl)benzyl)pyrrolidine-2-carboxamide]",,< 50%,< 10 nM,A (“A” indicates maximum degradation ≥75%)
COc1cc2nnc(-c3ccccc3O)cc2cc1C1CN(c2ncc(-c3cc([C@@H](C(=O)N4C[C@H](O)C[C@H]4C(=O)N[C@@H](C)c4ccc(-c5scnc5C)cc4)C(C)C)on3)cn2)C1 [Compound 23],,< 50%,> 10 nM,A (“A” indicates maximum degradation ≥75%)
"Cc1ncsc1-c1ccc([C@H](C)NC(=O)[C@@H]2C[C@@H](O)CN2C(=O)[C@@H](c2cc(-c3cnc(N4CCN(c5ccc6nnc(-c7ccccc7O)cc6c5)CC4)nc3)no2)C(C)C)cc1 [Compound 13, (2S,4R)-4-hydroxy-1-((R)-2-(3-(2-(4-(3-(2-hydroxyphenyl)cinnolin-6-yl)piperazin-1-yl)pyrimidin-5-yl)isoxazol-5-yl)-3-methylbutanoyl)-N—((S)-1-(4-(4-methylthiazol-5-yl)phenyl)ethyl)pyrrolidine-2-carboxamide]",< 10 nM,> 75%,< 10 nM,A (“A” indicates maximum degradation ≥75%)
"Cc1ncsc1-c1ccc([C@H](C)NC(=O)[C@@H]2C[C@@H](O)CN2C(=O)[C@@H](c2cc(N3CCOC4(CN(c5ccc6cc(-c7ccccc7O)nnc6c5)C4)C3)no2)C(C)C)cc1 [Compound 162, (2S,4R)-4-hydroxy-1-((R)-2-(3-(2-(3-(2-hydroxyphenyl)cinnolin-7-yl)-5-oxa-2,8-diazaspiro[3.5]nonan-8-yl)isoxazol-5-yl)-3-methylbutanoyl)-N-((S)-1-(4-(4-methylthiazol-5-yl)phenyl)ethyl)pyrrolidine-2-carboxamide]",< 10 nM,> 75%,< 10 nM,A (“A” indicates maximum degradation ≥75%)
Cc1ncsc1-c1ccc([C@H](C)NC(=O)[C@@H]2C[C@@H](O)CN2C(=O)C(C(C)C)n2cc(N3C4CCC3CN(c3ccc5nnc(-c6ccccc6O)cc5c3)C4)nn2)cc1 (stereo partly shown) [Compound 285],> 10 nM,> 75%,< 10 nM,A (“A” indicates maximum degradation ≥75%)
"Cc1ncsc1-c1ccc([C@H](C)NC(=O)[C@@H]2C[C@@H](O)CN2C(=O)[C@@H](c2cc(N3CC[C@@H](c4ccc5nnc(-c6ccccc6O)cc5c4)C3)no2)C(C)C)cc1 [Compound 73, (2S,4R)-4-hydroxy-1-((R)-2-(3-((S)-3-(3-(2-hydroxyphenyl)cinnolin-6-yl)pyrrolidin-1-yl)isoxazol-5-yl)-3-methylbutanoyl)-N-((S)-1-(4-(4-methylthiazol-5-yl)phenyl)ethyl)pyrrolidine-2-carboxamide]",,< 50%,< 10 nM,A (“A” indicates maximum degradation ≥75%)
"Cc1ncsc1-c1ccc(C(C)NC(=O)C2CC(O)CN2C(=O)[C@@H](c2cc(N3CCN([C@@H]4CCN(Cc5cc6nnc(-c7ccccc7O)cc6cc5Cl)CC4(F)F)CC3)no2)C(C)C)cc1 (stereo in doubt) [Compound 215, (2R,4S)-1-((R)-2-(3-(4-((R)-1-((6-chloro-3-(2-hydroxyphenyl)cinnolin-7-yl)methyl)-3,3-difluoropiperidin-4-yl)piperazin-1-yl)isoxazol-5-yl)-3-methylbutanoyl)-4-hydroxy-N-((R)-1-(4-(4-methylthiazol-5-yl)phenyl)ethyl)pyrrolidine-2-carboxamide]",,< 50%,< 10 nM,A (“A” indicates maximum degradation ≥75%)
"Cc1ncsc1-c1ccc([C@H](C)NC(=O)[C@@H]2C[C@@H](O)CN2C(=O)[C@@H](c2cc(N3CCN([C@@H]4CCN(c5ccc6cc(-c7ccccc7O)nnc6c5)CC4(F)F)CC3)no2)C(C)C)cc1 [Compound 107, (2S,4R)-1-((R)-2-(3-(4-((R)-3,3-difluoro-1-(3-(2-hydroxyphenyl)cinnolin-7-yl)piperidin-4-yl)piperazin-1-yl)isoxazol-5-yl)-3-methylbutanoyl)-4-hydroxy-N-((S)-1-(4-(4-methylthiazol-5-yl)phenyl)ethyl)pyrrolidine-2-carboxamide]",< 10 nM,> 75%,< 10 nM,A (“A” indicates maximum degradation ≥75%)
"Cc1ncsc1-c1ccc([C@H](C)NC(=O)[C@@H]2C[C@@H](O)CN2C(=O)[C@@H](c2cc(N3CC4(CN(c5ccc6cc(-c7ccccc7O)nnc6c5)CCO4)C3)no2)C(C)C)cc1 [Compound 127, (2S,4R)-4-hydroxy-1-((R)-2-(3-(8-(3-(2-hydroxyphenyl)cinnolin-7-yl)-5-oxa-2,8-diazaspiro[3.5]nonan-2-yl)isoxazol-5-yl)-3-methylbutanoyl)-N-((S)-1-(4-(4-methylthiazol-5-yl)phenyl)ethyl)pyrrolidine-2-carboxamide]",< 10 nM,> 75%,< 10 nM,A (“A” indicates maximum degradation ≥75%)
"Cc1ncsc1-c1ccc([C@H](C)NC(=O)[C@@H]2C[C@@H](O)CN2C(=O)[C@@H](c2cc(N3CCC4(CC3)CC(Oc3ccc5nnc(-c6ccccc6O)cc5c3)C4)no2)C(C)C)cc1 (single isomer, unassigned) [Compound 185]",< 10 nM,> 75%,< 10 nM,A (“A” indicates maximum degradation ≥75%)
"CC(C)[C@@H](C(=O)N1C[C@H](O)C[C@H]1C(=O)N[C@@H](C)c1ccc(Br)cc1)n1cc(-c2ccc3nnc(-c4cccc(F)c4O)cc3c2)nn1 [Compound 178, (2S,4R)-N-((S)-1-(4-bromophenyl)ethyl)-1-((S)-2-(4-(3-(3-fluoro-2-hydroxyphenyl)cinnolin-6-yl)-1H-1,2,3-triazol-1-yl)-3-methylbutanoyl)-4-hydroxypyrrolidine-2-carboxamide]",> 10 nM,> 75%,< 10 nM,A (“A” indicates maximum degradation ≥75%)
"Cc1ncsc1-c1ccc([C@H](C)NC(=O)[C@@H]2C[C@@H](O)CN2C(=O)C(c2cc(N3CCC4(CCC(c5ccc6nnc(-c7ccccc7O)cc6c5)CC4)CC3)no2)C(C)C)cc1 (stereo in doubt) [Compound 63, (2S,4R)-4-hydroxy-1-((S)-2-(3-(9-(3-(2-hydroxyphenyl)cinnolin-6-yl)-3-azaspiro[5.5]undecan-3-yl)isoxazol-5-yl)-3-methylbutanoyl)-N-((S)-1-(4-(4-methylthiazol-5-yl)phenyl)ethyl)pyrrolidine-2-carboxamide]",< 10 nM,> 75%,< 10 nM,A (“A” indicates maximum degradation ≥75%)
"Cc1ncsc1-c1ccc([C@H](C)NC(=O)[C@@H]2C[C@@H](O)CN2C(=O)[C@@H](c2cc(-c3ccc4nnc(-c5ccccc5O)cc4c3)no2)C(C)C)cc1 [Compound 97, (2S,4R)-4-hydroxy-1-[(2R)-2-{3-[3-(2-hydroxyphenyl)cinnolin-6-yl]-1,2-oxazol-5-yl}-3-methylbutanoyl]-N-[(1S)-1-[4-(4-methyl-1,3-thiazol-5-yl)phenyl]ethyl]pyrrolidine-2-carboxamide]",< 10 nM,> 75%,< 10 nM,A (“A” indicates maximum degradation ≥75%)
"Cc1ncsc1-c1ccc([C@H](C)NC(=O)[C@@H]2C[C@@H](O)CN2C(=O)[C@@H](c2cc(N3CCC4(CC3)CC(c3ccc5cc(-c6cc(F)cc(F)c6O)nnc5c3)C4)no2)C(C)C)cc1 [Compound 82, (2S,4R)-1-((R)-2-(3-(2-(3-(3,5-difluoro-2-hydroxyphenyl)cinnolin-7-yl)-7-azaspiro[3.5]nonan-7-yl)isoxazol-5-yl)-3-methylbutanoyl)-4-hydroxy-N-((S)-1-(4-(4-methylthiazol-5-yl)phenyl)ethyl)pyrrolidine-2-carboxamide]",,< 50%,< 10 nM,A (“A” indicates maximum degradation ≥75%)
